{"source": "patent US20220378773A1", "about": "“METHODS FOR TREATING LEUKEMIA AND USE OF A LEUKEMIC STEM CELL SIGNATURE TO PREDICT CLINICAL SENSITIVITY TO THERAPIES” (CELGENE CORPORATION, priority 2019, published 2022)", "key": {"primary AML graft": {"test_system": "primary AML graft", "experiment": "Pilot in vivo dose study on primary AML graft, 2 weeks dosing", "parameters": "species or system NOD/SCID mice", "method": "Intrafemoral Transplantation: One day prior to transplantation, NOD/SCID mice were preconditioned by sublethally irradiating (275 cGy) followed by injection with anti-CD122 antibody (200 μg/mouse) to deplete residual host natural killer (NK) cells. On the day of transplantation, viably frozen AML bulk cells (see Section 6.2.1.2) were thawed, counted, and transplanted intrafemorally into the preconditioned mice at a dose of 5×10^6 cells/mouse in a total volume of 30 μL phosphate buffered saline.\nCells harvested from injected and non-injected bone marrow were stained with mouse anti human antibodies as indicated in Section 6.2.1.3. After staining, washed cells were run on an LSRII flow cytometer (BD, USA) with 10,000 to 20,000 events collected for each sample. Collected data were analyzed by FlowJo software (TreeStar, USA) to assess AML engraftment levels in different tissues as determined by the percentage of human CD45+CD33+ cells.\nA pilot study was first conducted to determine the potential dosage that can be used to target primary AML graft in NOD/SCID mice. Two AML patient samples (AML 110500 and AML 90191) were tested at 1.25 or 2.5 mg/kg Compound D once daily (QD) or twice daily (BID) intraperitoneally for a total of 4 different dose/schedule groups (FIG. 4). Following pretreatment with sublethal irradiation and anti-CD122 antibody, NOD/SCID mice were intrafemorally transplanted with AML cells that were previously collected from patients and viably frozen. Mice were dosed with Compound D for 2 weeks post transplantation starting on Day 21. […] Percentage of cells positive with myeloid cell marker CD15 were also elevated in both RF and BM of 2.5 mg/kg BID Compound D-dosed mice (FIG. 4, bottom left). […] Based on this pilot study, Compound D was dosed at 2.5 mg/kg BID for the rest of the in vivo experiments."}, "[1]": {"test_system": "leukemic stem cells (LSCs)", "experiment": "Secondary xenograft limiting dilution assay (LDA)", "assay_type": "in vivo, NOD/SCID mice", "settings": "for Fold reduction of LSC frequency by Compound D: relative to vehicle; for No. mice engrafted/No. mice transplanted: from Compound D-treated primary mice", "method": "Secondary xenograft limiting dilution assay: To determine whether Compound D targeted leukemia stem cells with self-renewal ability, which are considered to contribute to leukemia progression, therapy-resistance, and relapse, secondary transplantation was performed using LDA. Limiting dilution assays are designed to define an unknown frequency of LSCs in the total leukemia graft of primary mice. LDA analysis in secondary transplantation will allow quantitative determination whether Compound D targets LSCs with self-renewal ability in primary mice. For this, multiple cell doses were used for secondary transplant to achieve both a positive response (engrafted mice at high cell doses) and a negative response (non-engrafted mice at lowest cell dose). Four different AML cell doses for each treated group (1 million, 500,000, 50,000 and 2000 cells/mouse) with 5 mice per cell dose, totally 40 mice for each AML graft sample. For any sample that was considered aggressive, LDA was performed with lower cell doses. The frequency of LSCs was analyzed using the Walter and Eliza Hall Institute (WEHI) bioinformatics extreme limiting dilution analysis (ELDA) software (bioinf.wehi.edu.au).\nFor secondary transplant NOD/SCID mice were sublethally irradiated (275 cGy) and pretreated with anti-CD122 antibody (200 μg/mouse) to deplete residual host natural killer cells. On the day of transplantation, viably frozen cells harvested from the vehicle- or Compound D-treated primary mice were thawed, counted, mouse-cell depleted (Mouse Cell Depletion Kit, Miltenyi Biotec, USA), and transplanted intrafemorally into the pretreated secondary mice at limiting doses described above. For secondary transplant without LDA, thawed cells were not depleted of mouse cells before transplantation. At 12 weeks post secondary transplantation, mice were euthanized, and bone marrow was collected and analyzed.\nLimiting dilution assay: Limiting dilution assays were used to define the frequency of leukemia stem cells in the total leukemia graft of the primary mice. Therefore, analysis of LDA in secondary transplantation will allow quantitative determination whether Compound D targets leukemia stem cells with self-renewal ability in primary mice. For this, multiple cell doses were used for secondary transplant to achieve both a positive response (engrafted mice at high cell doses) and a negative response (non-engrafted mice at lowest cell dose). Four different AML cell doses for each treated group were used (1 million, 500,000, 50,000 and 2000 cells/mouse) with 5 mice per cell dose, totally 40 mice for each leukemia graft sample. For any sample that was considered aggressive, LDA was performed with lower cell doses. The frequency of LSCs was analyzed using the Walter and Eliza Hall Institute (WEHI) bioinformatics extreme limiting dilution analysis (ELDA) software (bioinfwehi.edu.au).\nIntrafemoral transplantation: One day prior to transplantation, NOD/SCID mice were sublethally irradiated (275 cGy) and pretreated with anti-CD122 antibody (200m/mouse) to deplete residual host natural killer cells. On the day of transplantation, viably frozen cells harvested from combined vehicle- or Compound D-treated (2.5 mg/kg intraperitoneally twice daily for 14 days, Section 6.1) primary mice were thawed, counted, mouse cell depleted, and transplanted intrafemorally into the pretreated secondary mice at limiting doses in a total volume of 30 μl. For the Compound D-treated samples with low human AML engraftment 25%), cells from both RF and BM were combined and 2 rounds of mouse depletion were performed to ensure a high human AML cell purity. […] Mouse cell depletion was performed following the instructions provided by Miltenyi Biotec (Mouse Cell Depletion Kit, catalogue number 130-104-694, Miltenyi Biotec, Germany). […]"}}, "note": "Entries after “also recorded” stand apart in the source; their conditions may differ. Marks after values point to notes of the source that are not given here."}
{"smiles": "O=C1CCC(N2Cc3cc(CNC(=O)C(F)(F)c4ccc(Cl)cc4)ccc3C2=O)C(=O)N1", "note": "(stereo not shown) [Compound D, 2-(4-chlorophenyl)-N-((2-(2,6-dioxopiperidin-3-yl)-1-oxoisoindolin-5-yl)methyl)-2,2-difluoroacetamide]", "values": [{"measurement": "grafted cells", "setting": "primary AML graft; AML 90191", "result": "largely not affected"}, {"measurement": "CD34+ primitive leukemic cells in RF and BM", "setting": "primary AML graft; AML 110500, 2.5 mg/kg BID", "result": "decreased the most"}, {"measurement": "percentage of CD15 positive cells in RF and BM", "setting": "primary AML graft; AML 110500, 2.5 mg/kg BID", "result": "elevated"}, {"measurement": "AML grafts in RF and BM", "setting": "primary AML graft; AML 110500, 2.5 mg/kg QD and BID", "result": "significantly decreased"}, {"measurement": "AML graft", "setting": "primary AML graft; AML 110500, 1.25 or 2.5 mg/kg QD or BID IP, 2 weeks, vs vehicle", "result": "reduced AML graft of patient sample AML 110500 cells in a dose-dependent manner"}, {"measurement": "AML engraftment in secondary mice", "setting": "[1]; AML 90191, cells from Compound D primary-treated mice, about 12 weeks", "result": "no AML engraftment"}, {"measurement": "leukemia graft in secondary mice vs vehicle-treated cells", "setting": "[1]; AML 110500", "result": "much lower leukemia graft"}, {"measurement": "LSC frequency, vehicle- vs Compound D-treated primary mice", "setting": "[1]; AML 120860, non-injected BM data", "result": "no difference in LSC frequency; also recorded: no difference for LSC frequency"}, {"measurement": "LSC frequency increase following treatment", "setting": "[1]; AML Patient 110484", "result": 1.6, "unit": "fold"}, {"measurement": "LSC frequency increase following treatment", "setting": "[1]; AML Patient 120846", "result": 1.8, "unit": "fold"}, {"measurement": "LSC frequency increase following treatment", "setting": "[1]; AML Patient 120860", "result": 1.3, "unit": "fold"}, {"measurement": "LSC frequency increase following treatment", "setting": "[1]; AML Patient 130695", "result": 12.6, "unit": "fold"}, {"measurement": "LSC frequency", "setting": "[1]; AML Patient 130926 (responder)", "result": "did not reduce LSC frequency"}, {"measurement": "LSC frequency (1/total number), Compound D", "setting": "[1]; Patient 598, cells from RF of treated primary mice", "result": "675569 1/total number"}, {"measurement": "Fold reduction of LSC frequency by Compound D", "setting": "[1]; Patient 598", "result": 2.1, "unit": "fold"}, {"measurement": "LSC frequency (1/total number), Compound D", "setting": "[1]; Patient 90191, cells from RF + BM of treated primary mice", "result": "Not engrafted"}, {"measurement": "LSC frequency (1/total number), Compound D", "setting": "[1]; Patient 100348, cells from RF + BM of treated primary mice", "result": "923814 1/total number"}, {"measurement": "Fold reduction of LSC frequency by Compound D", "setting": "[1]; Patient 100348", "result": 4.0, "unit": "fold"}, {"measurement": "LSC frequency (1/total number), Compound D", "setting": "[1]; Patient 110484, cells from RF of treated primary mice", "result": "1153831 1/total number"}, {"measurement": "Fold reduction of LSC frequency by Compound D", "setting": "[1]; Patient 110484, negative sign = increase", "result": "−1.6 ^a fold"}, {"measurement": "LSC frequency (1/total number), Compound D", "setting": "[1]; Patient 110500, cells from RF of treated primary mice", "result": "356239 1/total number"}, {"measurement": "LSC frequency (1/total number), Compound D", "setting": "[1]; Patient 120791, cells from RF + BM of treated primary mice", "result": "Not engrafted"}, {"measurement": "LSC frequency (1/total number), Compound D", "setting": "[1]; Patient 120846, cells from RF of treated primary mice", "result": "14523 1/total number"}, {"measurement": "Fold reduction of LSC frequency by Compound D", "setting": "[1]; Patient 120846, negative sign = increase", "result": "−1.8 ^a fold"}, {"measurement": "LSC frequency (1/total number), Compound D", "setting": "[1]; Patient 120860, cells from BM of treated primary mice", "result": "65626 1/total number"}, {"measurement": "Fold reduction of LSC frequency by Compound D", "setting": "[1]; Patient 120860, negative sign = increase", "result": "−1.3 ^a fold"}, {"measurement": "LSC frequency (1/total number), Compound D", "setting": "[1]; Patient 120899, cells from BM of treated primary mice", "result": "27120 1/total number"}, {"measurement": "Fold reduction of LSC frequency by Compound D", "setting": "[1]; Patient 120899", "result": 4.0, "unit": "fold"}, {"measurement": "LSC frequency (1/total number), Compound D", "setting": "[1]; Patient 121020, cells from RF+BM of treated primary mice", "result": "7562084 1/total number"}, {"measurement": "Fold reduction of LSC frequency by Compound D", "setting": "[1]; Patient 121020", "result": 1.5, "unit": "fold"}, {"measurement": "No. mice engrafted/No. mice transplanted", "setting": "[1]; Patient 130578, 5000 cells transplanted/mouse", "result": "0/5"}, {"measurement": "No. mice engrafted/No. mice transplanted", "setting": "[1]; Patient 130578, 20000 cells transplanted/mouse", "result": "0/5"}, {"measurement": "No. mice engrafted/No. mice transplanted", "setting": "[1]; Patient 130578, 50000 cells transplanted/mouse", "result": "2/5"}, {"measurement": "No. mice engrafted/No. mice transplanted", "setting": "[1]; Patient 130578, 120000 cells transplanted/mouse", "result": "2/3"}, {"measurement": "Fold reduction of LSC frequency by Compound D", "setting": "[1]; Patient 130578", "result": 9.4, "unit": "fold"}, {"measurement": "LSC frequency (1/total number), Compound D", "setting": "[1]; Patient 130695, cells from RF of treated primary mice", "result": "36696 1/total number"}, {"measurement": "Fold reduction of LSC frequency by Compound D", "setting": "[1]; Patient 130695, negative sign = increase", "result": "−12.6*** ^a fold"}, {"measurement": "LSC frequency (1/total number), Compound D", "setting": "[1]; Patient 130712, cells from BM of treated primary mice", "result": "758064 1/total number"}, {"measurement": "Fold reduction of LSC frequency by Compound D", "setting": "[1]; Patient 130712", "result": 2.7, "unit": "fold"}, {"measurement": "LSC frequency (1/total number), Compound D", "setting": "[1]; Patient 130926, cells from RF + BM of treated primary mice", "result": "1207241 1/total number"}, {"measurement": "Fold reduction of LSC frequency by Compound D", "setting": "[1]; Patient 130926", "result": 1.0, "unit": "fold"}, {"measurement": "LSC frequency (1/total number), Compound D", "setting": "[1]; Patient 140171, cells from RF + BM of treated primary mice", "result": "Not engrafted"}, {"measurement": "responsive leukemia samples with LSCs targeted", "setting": "[1]; mouse, in vivo", "result": "6 out of 10 samples"}]}
